Experimental data from US11999727B2 (Tango Therapeutics, Inc., priority 2020, dated 2024).
pIC50: −log10 of the molar value.

Legend:
[1] = biological target: T1, PRMT5 (Homo sapiens, UniProt O14744); assay: PRMT5 biochemical IC50 assay with SAM as cofactor; settings: PRMT5, SAM as cofactor; read-out: SAM IC50
T1 construct: purchased Viva (custom protein)

[2] = biological target: T1, PRMT5; assay: PRMT5 biochemical IC50 assay with no cofactor; settings: PRMT5, no cofactor
From the text: Table 1 indicates IC50 values (μM) against PRMT5 for exemplary compounds in the presence of SAM as cofactor, with no cofactor, and with MTA as cofactor, respectively (columns 4-6). […] Ki values can be calculated from the IC50 values as described in the Examples section. As detailed in the Examples section, for the assay performed in the presence of SAM, IC50=Ki×1.5 (Ki=IC50/1.5).

[3] = biological target: T1, PRMT5; assay: PRMT5 biochemical IC50 assay with MTA as cofactor; settings: PRMT5, MTA as cofactor; read-out: MTA IC50
[4] = system: HAP1 MTAP-intact cell line; assay: SDMA in-cell western assay, HAP1 MTAP-intact; type: cell-based; settings: Homo sapiens, HAP1, SDMA in-cell western, HAP1 MTAP-intact; read-out: MTAP HAP1 intact IC50
Outline: (§1)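 Readout: in-cell western detection of SDMA. Cells: HAP1 expressing endogenous MTAP and an MTAP-null HAP1 counterpart. Output: IC50.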

[5] = system: HAP1 MTAP-deleted cell line; assay: SDMA in-cell western assay, HAP1 MTAP-deleted; type: cell-based; settings: for pIC50: Homo sapiens, HAP1, SDMA in-cell western, HAP1 MTAP-deleted; for MTAP intact/deleted ratio: SDMA in-cell western
Outline: as §1

[6] = system: HAP1 MTAP-deleted cell line; assay: Viability assay, MTAP-deleted cell line; type: cell-based; settings: Homo sapiens, read-out: HAP1 MTAP deleted viability
From the text: Table 1 additionally indicates IC50 values in a viability assay for the MTAP-deleted cell line (column 10), indicating the effect of treatment with compound on cell survival.

[7] = read-out: HAP 1 MTAP deleted IC50
[8] = IC50 ratio HAP1 MTAP-intact / HAP1 MTAP-deleted
[9] = HAP1, viability assay, MTAP-deleted cell line
[10] = read-out: HAP1 MTAP deleted IC50
[11] = HAP1, viability assay, HAP1 MTAP-deleted
[12] = HAP1, viability IC50, MTAP-deleted cell line
[13] = read-out: No Cofactor/ rel IC50
[14] = IC50 ratio HAP1 MTAP-intact vs HAP1 MTAP-deleted

T1 sequence (O14744 whole entry): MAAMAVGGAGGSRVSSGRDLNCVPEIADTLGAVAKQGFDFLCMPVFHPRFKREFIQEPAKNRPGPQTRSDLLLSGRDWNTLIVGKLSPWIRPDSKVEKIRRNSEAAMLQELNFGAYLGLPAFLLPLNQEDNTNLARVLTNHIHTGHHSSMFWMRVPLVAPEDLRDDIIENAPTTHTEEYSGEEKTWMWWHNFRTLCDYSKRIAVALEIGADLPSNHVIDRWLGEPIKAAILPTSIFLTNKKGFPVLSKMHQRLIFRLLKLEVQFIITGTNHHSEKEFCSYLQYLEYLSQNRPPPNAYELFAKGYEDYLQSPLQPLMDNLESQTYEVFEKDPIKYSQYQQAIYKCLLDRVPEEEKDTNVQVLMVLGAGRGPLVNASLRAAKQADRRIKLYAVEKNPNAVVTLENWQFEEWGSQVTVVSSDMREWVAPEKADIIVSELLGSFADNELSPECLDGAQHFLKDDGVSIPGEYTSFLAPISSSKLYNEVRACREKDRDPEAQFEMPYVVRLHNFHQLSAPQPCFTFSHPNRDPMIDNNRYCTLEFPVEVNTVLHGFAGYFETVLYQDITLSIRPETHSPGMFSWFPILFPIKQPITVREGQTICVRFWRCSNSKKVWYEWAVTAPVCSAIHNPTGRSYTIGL
T1 sequence (Q9BQA1 whole entry partner): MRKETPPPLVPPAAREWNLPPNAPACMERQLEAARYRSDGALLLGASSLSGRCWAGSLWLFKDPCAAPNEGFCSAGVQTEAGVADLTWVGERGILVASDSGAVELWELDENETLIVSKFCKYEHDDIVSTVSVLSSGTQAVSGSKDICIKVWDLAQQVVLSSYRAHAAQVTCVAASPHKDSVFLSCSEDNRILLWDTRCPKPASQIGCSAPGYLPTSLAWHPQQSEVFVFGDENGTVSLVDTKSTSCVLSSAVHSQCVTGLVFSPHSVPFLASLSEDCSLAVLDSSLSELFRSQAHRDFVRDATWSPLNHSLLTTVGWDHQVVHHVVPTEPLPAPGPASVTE

| pIC50 [1] | pIC50 ([2]; read-out: No Cofactor/rel IC50) | pIC50 [3] | pIC50 [4] | pIC50 [5, 7] | pIC50 [5, 10] | pIC50 [2, 13] | SMILES | MTAP intact/deleted ratio [5, 8] | pIC50 [6, 9] | pIC50 [6, 11] | pIC50 [6, 12] | pIC50 ([6]; HAP1, viability, HAP1 MTAP-deleted cell line) | MTAP intact/deleted ratio [5, 14] |
| --- | --- | --- | --- | --- | --- | --- | --- | --- | --- | --- | --- | --- | --- |
| < 6.30 | < 6.30 | < 6.30 | < 6.00 |  | < 6.00 |  | C[C@H]1CC[C@H](c2ccc3c(c2)C(=O)NC3)N(C(=O)C(=O)Nc2cncc(C(N)=O)c2)C1 (single isomer, unassigned) [Compound 751] | C (an IC50 ratio of less than 3 fold) |  | < 5.00 |  |  |  |
| 6.30 to 7.30 | 6.30 to 7.30 | > 7.30 | < 6.00 |  | > 7.00 |  | C[C@@H]1CC[C@@H](c2ccc(N)nc2)N(C(=O)C(=O)Nc2cncc(C(N)=O)c2)C1 (racemic) [Compound 224, rac-5-{2-[(2R,5S)-2-(6-Aminopyridin-3-yl)-5-methylpiperidin-1-yl]-2-oxoacetamido}pyridine-3-carboxamide] | A (an IC50 ratio greater than or equal to 10 fold) | 5.00 to 6.00 |  |  |  |  |
| < 6.30 | < 6.30 | < 6.30 | < 6.00 | < 6.00 |  |  | CC(=O)Nc1ccc([C@@H]2CC[C@@H](C)CN2C(=O)C(=O)Nc2cnc(N)c(C)c2)cn1 (single isomer, unassigned) [Compound 927] | C (an IC50 ratio of less than 3 fold) | < 5.00 |  |  |  |  |
| 6.30 to 7.30 | > 7.30 | > 7.30 | 6.00 to 7.00 | > 7.00 |  |  | CCc1cc(NC(=O)C(=O)N2C[C@H](C)CC[C@H]2c2ccc3cnccc3c2)cnc1N (single isomer, unassigned) [Compound 919] | A (an IC50 ratio greater than or equal to 10 fold) | > 6.00 |  |  |  |  |
| 6.30 to 7.30 | > 7.30 | 6.30 to 7.30 | 6.00 to 7.00 | > 7.00 |  |  | Cc1cc(NC(=O)C(=O)N2C[C@H](C)CC[C@H]2c2ccc(-c3cn[nH]c3)cc2)cnc1N (single isomer, unassigned) [Compound 628] | A (an IC50 ratio greater than or equal to 10 fold) |  |  | > 6.00 |  |  |
| 6.30 to 7.30 | > 7.30 | > 7.30 | 6.00 to 7.00 |  | > 7.00 |  | CCc1cc(NC(=O)C(=O)N2C[C@@H](C)CC[C@@H]2c2ccc(CCN(C)C)cc2)cnc1N [Compound 1228, N-(6-amino-5-ethylpyridin-3-yl)-2-((2R,5S)-2-(4-(2-(dimethylamino)ethyl)phenyl)-5-methylpiperidin-1-yl)-2-oxoacetamide] |  | > 6.00 |  |  |  | A (an IC50 ratio greater than or equal to 10 fold) |
| < 6.30 | < 6.30 | < 6.30 | < 6.00 |  |  |  | CNc1ccc([C@H]2CC[C@@H](C)CN2C(=O)C(=O)Nc2cnc(OC)c(C(N)=O)c2)cn1 (single isomer, unassigned) [Compound 467] | C (an IC50 ratio of less than 3 fold) | < 5.00 |  |  |  |  |
| 6.30 to 7.30 | 6.30 to 7.30 | > 7.30 | < 6.00 |  | < 6.00 |  | C[C@@H]1CC[C@@H](c2ccc(S(N)(=O)=O)cc2)N(C(=O)C(=O)Nc2cncc(C(N)=O)c2)C1 (single isomer, unassigned) [Compound 725] | C (an IC50 ratio of less than 3 fold) |  | < 5.00 |  |  |  |

Second part, the compound before the results:

| SMILES | pIC50 [1] | pIC50 ([2]; read-out: No Cofactor/rel IC50) | pIC50 [3] | pIC50 [4] | pIC50 [5, 7] | pIC50 [5, 10] | pIC50 [2, 13] | MTAP intact/deleted ratio [5, 8] | pIC50 [6, 9] | pIC50 [6, 11] | pIC50 [6, 12] | pIC50 ([6]; HAP1, viability, HAP1 MTAP-deleted cell line) | MTAP intact/deleted ratio [5, 14] |
| --- | --- | --- | --- | --- | --- | --- | --- | --- | --- | --- | --- | --- | --- |
| CCc1cc(NC(=O)C(=O)N2C[C@H](C)C(F)(F)C[C@H]2c2ccc(C)nc2)cnc1N (single isomer, unassigned) [Compound 935] | < 6.30 | < 6.30 | < 6.30 | < 6.00 | < 6.00 |  |  | C (an IC50 ratio of less than 3 fold) | < 5.00 |  |  |  |  |
| Cc1cc(NC(=O)C(=O)N2C[C@H](C)CC[C@H]2c2cnc3[nH]ncc3c2)cnc1N (single isomer, unassigned) [Compound 549] | 6.30 to 7.30 | 6.30 to 7.30 | > 7.30 | 6.00 to 7.00 | > 7.00 |  |  | A (an IC50 ratio greater than or equal to 10 fold) |  |  | 5.00 to 6.00 |  |  |
| Cc1cc(NC(=O)C(=O)N2C[C@@H](C)CC[C@@H]2c2cscn2)cnc1N (single isomer, unassigned) [Compound 1020] | < 6.30 | 6.30 to 7.30 | > 7.30 | < 6.00 | 6.00 to 7.00 |  |  | A (an IC50 ratio greater than or equal to 10 fold) | 5.00 to 6.00 |  |  |  |  |
| Cc1ncc(NC(=O)C(=O)N2C[C@@H](C)CC[C@@H]2c2ccc3sc(C4CCN(C)CC4)nc3c2)cc1C(N)=O [Compound 1326, 2-methyl-5-(2-((2R,5S)-5-methyl-2-(2-(1-methylpiperidin-4-yl)benzo[d]thiazol-5-yl)piperidin-1-yl)-2-oxoacetamido)nicotinamide] | > 7.30 |  | > 7.30 | 6.00 to 7.00 | > 7.00 |  | > 7.30 | A (an IC50 ratio greater than or equal to 10 fold) |  |  |  | > 6.00 |  |
| Cc1c(NC(=O)C(=O)N2C[C@H](C)CC[C@H]2c2ccc(O)cc2)cnc(N)c1C (single isomer, unassigned) [Compound 391] | < 6.30 | < 6.30 | < 6.30 | < 6.00 |  | < 6.00 |  | C (an IC50 ratio of less than 3 fold) | < 5.00 |  |  |  |  |
| Cc1cc(NC(=O)C(=O)N2CCCCC2c2ccncc2)cnc1N (racemic) [Compound 36, N-(6-Amino-5-methyl-3-pyridyl)-2-oxo-2-[2-(4-pyridyl)-1-piperidyl]acetamide] | 6.30 to 7.30 |  | > 7.30 | < 6.00 | 6.00 to 7.00 |  | 6.30 to 7.30 | A (an IC50 ratio greater than or equal to 10 fold) | < 5.00 |  |  |  |  |
| CCc1cc(NC(=O)C(=O)N2C[C@H](C)CC[C@H]2c2ccc3sc(C)nc3c2)cnc1N (single isomer, unassigned) [Compound 801] | < 6.30 | < 6.30 | < 6.30 | < 6.00 |  | < 6.00 |  | B (an IC50 ratio greater than or equal to 3 fold but lower than 10 fold) |  | < 5.00 |  |  |  |
| CNC(=O)[C@@H]1CC[C@@H](c2ccccc2)N(C(=O)C(=O)Nc2cnc(N)c(C)c2)C1 (racemic) [Compound 249, 1-(2-((6-amino-5-methylpyridin-3-yl)amino)-2-oxoacetyl)-N-methyl-6-phenylpiperidine-3-carboxamide] | 6.30 to 7.30 | < 6.30 | 6.30 to 7.30 | < 6.00 |  | < 6.00 |  | C (an IC50 ratio of less than 3 fold) | < 5.00 |  |  |  |  |
| NC(=O)c1cncc(NC(=O)C(=O)N2CCC3(CCOCC3)CC2)c1 [Compound 191, 5-[[2-(3-Oxa-9-azaspiro[5.5]undecan-9-yl)-2-oxo-acetyl]amino]pyridine-3-carboxamide] | < 6.30 | < 6.30 | 6.30 to 7.30 | < 6.00 |  | < 6.00 |  | C (an IC50 ratio of less than 3 fold) | < 5.00 |  |  |  |  |
| CCc1cc(NC(=O)C(=O)N2C[C@@H](C)CC[C@@H]2c2ccc3sc(C4CCN(CCC(F)(F)F)CC4)nc3c2)cnc1N [Compound 1124, N-(6-amino-5-ethylpyridin-3-yl)-2-((2R,5S)-5-methyl-2-(2-(1-(3,3,3-trifluoropropyl)piperidin-4-yl)benzo[d]thiazol-5-yl)piperidin-1-yl)-2-oxoacetamide] | 6.30 to 7.30 | > 7.30 | > 7.30 | > 7.00 |  | > 7.00 |  |  | > 6.00 |  |  |  | B (an IC50 ratio greater than or equal to 3 fold but lower than 10 fold) |
| Cc1cc(NC(=O)C(=O)N2C[C@H](C)CC[C@H]2c2ccc(N3CCN(C)CC3)cc2)cnc1N (single isomer, unassigned) [Compound 1193] | < 6.30 | < 6.30 | < 6.30 | < 6.00 |  | < 6.00 |  |  | < 5.00 |  |  |  |  |
| Cc1cc(NC(=O)C(=O)N2C[C@H](C)CC[C@H]2c2cc(F)cc(Cl)c2)cnc1N (single isomer, unassigned) [Compound 659] | 6.30 to 7.30 | > 7.30 | > 7.30 | 6.00 to 7.00 | > 7.00 |  |  | A (an IC50 ratio greater than or equal to 10 fold) |  |  | > 6.00 |  |  |
